The values that follow come from PubChem BioAssay (NCI).

Several values for one entry are separate records, joined by “and”; a condition that tells them apart may be missing. Equal values may be shown once.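 How tested: cells in 96-well plates exposed to compound for 48 hours at five concentrations. The concentration for 50% growth inhibition is given as GI50. The concentration for full growth arrest is given as TGI.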 Where only a bound is given, the exact number is not on record here.

What all share (assay): inhibition of tumour cell growth, NCI panel, 48 h
Test [1] deals with IGROV1 ovarian.
Test [2] relates to M14 melanoma.
Test [3] relates to SK-OV-3 ovarian.
Test [4] relates to MALME-3M melanoma.
Test [5] has as its system HT29 colon.
For test [6], the system named is CAKI-1 renal.
Test [7] concerns HCC-2998 colon.
Test [8] relates to SW-620 colon.
The subject of test [9] is NCI-H522 lung.
Test [10] has as its system TK-10 renal.

On to `Cc1c2c(nn1C)CSCc1cc(n(C)n1)CSc1cc(c3ccccc3c1)OCCCc1c(C(=O)O)n(C)c3c-2c(Cl)ccc13`, for which the GI50 in [1] is 3.99 µM; in test [2] it was 2.68 µM; in test [3] it was 10.6 µM; in test [4], 2.84 µM; in test [5], 3.32 µM; in test [6] it was 4.98 µM. In addition, the GI50 in [7] is 3.15 µM; in [8] it was 4.26 µM; in test [9], 1.9 µM; in [10], 4.75 µM. For the same compound, the TGI in [1] was 14.5 µM; in [2], 11.1 µM; in test [3] it was 22.7 µM; in test [4] it was 9.87 µM; in test [5] it was 12.6 µM; in test [6], 17.4 µM. In addition, the TGI in test [7] turned out to be 13.4 µM; in test [8], 16 µM; in [9], 8.01 µM; in test [10], 18.3 µM.
In the case of `O=C1c2c(O)cccc2C(C2OC(CO)C(O)C(O)C2O)c2cc(CO)cc(O)c21` (stereo not given), the TGI in test [1], in [2], in [3], in test [4], in test [5] and in test [6] was > 100 µM each time. Besides, the TGI in [7], in test [8], in test [9] and in test [10] was > 100 µM in each case.
`CCOc1cc2ncc(C#N)c(Nc3ccc(OCc4ccccn4)c(Cl)c3)c2cc1NC(=O)/C=C/CN(C)C`: the GI50 is 0.121 µM and 0.0191 µM in test [1]; 0.392 µM and 0.38 µM in test [2]; < 0.01 µM and 0.00218 µM in [3]; 0.61 µM in [4]; 0.491 µM and 0.502 µM in test [5]; 0.0564 µM and 0.146 µM in test [6]. Besides, the GI50 in test [7] is 1.29 µM and > 2.87 µM; in test [8] it was 0.638 µM and 0.53 µM; in test [9], < 0.01 µM and 0.00351 µM; in [10], < 0.0117 µM and 0.0127 µM. Also, the TGI in [1] was 5.7 µM and 1.84 µM; in test [2], 1.95 µM and 1.58 µM; in test [4] it was 2.59 µM; in [5], 2.05 µM and 2.62 µM; in test [6], 12.5 µM and > 9.09 µM; in test [7] it was 20.1 µM and > 7.88 µM. In addition, the TGI in test [8] was 2.41 µM and 3.02 µM; in [9], 0.0818 µM and 0.706 µM.
Take `O=C(COc1ccc(/C=C2\Oc3ccccc3C2=O)cc1)Nc1nc2c(s1)CCCC2`: the GI50 in test [1] is 0.0164 µM; in test [2], 16.1 µM; in [3], 50.2 µM; in test [4] it was 1.25 µM; in test [5] it was 3.21 µM; in [6], 0.801 µM. Further, the GI50 in test [7] was 16 µM; in test [8] it was 4.07 µM; in [9], 0.165 µM; in test [10] it was 26.2 µM. Moreover, the TGI in [1] was 0.0361 µM; in [2] it was > 100 µM; in test [3] it was > 100 µM; in test [4] it was > 78.5 µM; in [5], > 39.4 µM; in test [6], 8.28 µM. Further, the TGI is 52.3 µM in test [7], > 100 µM in test [8], 0.406 µM in [9] and > 87.6 µM in test [10].
With `CC[N+]1(C)CCC(O)(c2ccc(Cl)c(Cl)c2)C(C(=O)c2ccc(Cl)c(Cl)c2)C1` (stereo not given), the TGI in test [1], in test [2], in [3], in test [4], in test [5] and in [6] was > 10 µM in each case. Also, the TGI was > 10 µM in [7], > 10 µM in test [8], 7.44 µM in test [9] and > 10 µM in [10].
On to `O=C1c2ccccc2-c2c1c1ccccc1c(=O)n2CCN1CCOCC1`, for which the GI50 in test [1] was 79.4 µM; in [3], > 100 µM; in test [4] it was > 100 µM; in test [5] it was 57.8 µM; in [6] it was 23.9 µM; in test [7], 42.5 µM. Also, the GI50 in [8] was 87.6 µM; in [9] it was 39.5 µM; in test [10], 84.8 µM. Further, the TGI is > 100 µM in test [1]; > 100 µM in test [3]; > 100 µM in test [4]; > 100 µM in test [5]; 90.3 µM in test [6]; > 100 µM in [7]. Besides, the TGI in [8], in test [9] and in test [10] was > 100 µM each time.
As for `C/C(CC(=O)Nc1ccc(Cl)cc1)=N\NC(N)=S`, the TGI was > 100 µM in test [1]; > 100 µM in [2]; > 100 µM in test [3]; > 100 µM in test [4]; > 100 µM in test [5]; 75.7 µM in test [7]. Moreover, the TGI in test [8], in test [9] and in test [10] was > 100 µM each time.
Take `O=C(NC[C@H](O)CO)c1ccncc1Nc1ccc(I)cc1F`: the TGI is > 100 µM in [1]; > 3.52 µM and 10.8 µM in [2]; > 100 µM in test [3]; 0.0972 µM and < 0.0162 µM in test [4]; > 38.7 µM in test [5]; > 100 µM in test [6]. The TGI was > 8.4 µM and 9.22 µM in test [7]; > 100 µM in test [8]; > 100 µM in [9]; > 100 µM in test [10]. Further, the GI50 was 0.0031 µM and < 0.01 µM in test [2]; > 4.46 µM and 26.2 µM in [3]; 0.00242 µM and < 0.01 µM in test [4]; 0.00409 µM and < 0.011 µM in [5]; 0.59 µM and 1.38 µM in [6]; 0.00358 µM and 0.019 µM in [7]. Also, the GI50 was 0.0144 µM and 0.0188 µM in test [8]; 4.95 µM and 33.2 µM in test [9].
For the compound `CCOC(=O)NC(=O)c1cn(CCCCCCOC(=O)NCCCCCCNC(=O)OCCCCCCn2cc(C(=O)NC(=O)OCC)c(=O)[nH]c2=O)c(=O)[nH]c1=O`, the TGI in [1], in [2], in test [3], in test [4], in test [5] and in test [6] was > 100 µM each time. In addition, the TGI in test [7], in [8] and in [9] was > 100 µM throughout.
For the compound `O=C(/C=C/c1ccc([N+](=O)[O-])cc1)c1ccc2c3c(cccc13)CC2`, the GI50 in test [1] is 4.36 µM; in [2], > 64.6 µM; in [3], 33.1 µM; in [4], > 64.2 µM; in [5], 5.05 µM; in [6], 9.69 µM. In addition, the GI50 was 26.9 µM in test [7], 2.34 µM in test [8], 9.77 µM in test [9] and 31.4 µM in test [10]. Moreover, the TGI in test [1] was 53.2 µM; in test [2] it was > 100 µM; in test [3] it was > 91.3 µM; in test [4], > 100 µM; in test [5] it was > 100 µM; in test [6], > 100 µM. Further, the TGI in [7] was > 78.1 µM; in [8], 6.62 µM; in [9], 34.5 µM; in test [10] it was > 75 µM.
For `CC1(C)CC(C)(C)C1=NNC(N)=O`, the TGI in [1], in test [2], in test [3], in test [4], in test [5] and in [6] was > 100 µM throughout. Also, the TGI in test [7], in test [8], in [9] and in [10] was > 100 µM in each case.
Take `CC1=C(CO)C(=O)O[C@@H]([C@@H](C)[C@H]2CC[C@H]3[C@@H]4C[C@@H](O)[C@@]5(O)CC=CC(=O)[C@]5(C)[C@H]4CC[C@]23C)C1`: the TGI in test [1] is 31.6 µM; in test [2], > 100 µM; in [3], > 100 µM; in test [4] it was 44.7 µM; in test [5], > 100 µM; in [6] it was > 100 µM. In addition, the TGI is > 100 µM in test [7], 47.4 µM in test [8], 30.7 µM in test [9] and > 100 µM in test [10].
Consider `O=C1CC(S(=O)(=O)O)C=C1Nc1cccc(Cl)c1` (stereo not given), for which the TGI in [1], in test [2], in [3], in [4], in test [5] and in test [6] was > 100 µM each time. The TGI in [7], in test [8], in test [9] and in [10] was > 100 µM in each case.
As to `Cc1ccc(N2C(=O)C3C=CC(n4[nH]c(=O)n(Cc5ccccc5)c4=O)CC3C2=O)cc1` (stereo not given), the TGI in [1], in [2], in test [3], in test [4], in [5] and in test [6] was > 100 µM throughout. Further, the TGI in test [7], in [8], in test [9] and in [10] was > 100 µM each time.
On to `O=S1(=O)OCCOS(=O)(=O)C1Cc1ccccc1`, for which the TGI was 93.3 µM in test [1]; > 100 µM in [3]; > 100 µM in [4]; > 100 µM in test [5]; > 100 µM in test [6]; 45.4 µM in test [7]. Besides, the TGI in [8], in test [9] and in [10] was > 100 µM in each case.
Turning to `COc1ccc(C(=O)C(c2ccc(OC)cc2)C2(O)C(=O)Nc3c2ccc(Cl)c3C)cc1` (stereo not given), the TGI in test [1], in test [2], in test [3], in test [4], in test [5] and in test [7] was > 100 µM throughout. Moreover, the TGI in test [8], in test [9] and in test [10] was > 100 µM in each case.
For the compound `N#CC(c1nc2ccccc2nc1Cl)S(=O)(=O)c1ccccc1` (stereo not given), the TGI in test [2], in test [4], in test [6], in test [7], in test [8] and in test [9] was > 100 µM each time. Further, the TGI in test [10] is > 100 µM.
As to `CCOC(=O)NC(=O)c1cn(CCN2CCN(c3ncnc4nc[nH]c34)CC2)c(=O)[nH]c1=O`, the TGI in [1], in [2], in test [3], in test [4], in [5] and in test [7] was > 100 µM throughout. The TGI in test [8], in test [9] and in [10] was > 100 µM each time.
In the case of `NC(=O)c1c(NC(=O)c2ccc3c(c2)OCO3)sc2c1CCC(=O)C2`, the GI50 in test [2] was 0.59 µM; in [4] it was 2.04 µM; in test [7], 3.45 µM; in test [9], 0.355 µM; in test [10], 3.32 µM. Further, the TGI in [2] was > 100 µM; in [4], 4.67 µM; in [7], > 100 µM; in test [9], 2.29 µM; in test [10], > 100 µM.
For `Cc1ccc(CNc2c3ccccc3nc3cc(NC(=O)CCN4CCCC4)ccc23)cc1`, the GI50 in test [2] is 1.45 µM; in test [3] it was 1.1 µM; in test [4], 1.51 µM; in test [6] it was 1.23 µM; in test [7], 0.573 µM; in test [8] it was 0.413 µM. The values for the GI50 in [9] and in test [10] were 0.509 µM and 1.23 µM, respectively. Further, the TGI in test [2] came to 2.84 µM; in test [3], 2.79 µM; in [4], 2.92 µM; in test [6] it was 3.91 µM; in test [7] it was 2.01 µM; in [8] it was 1.58 µM. The TGI came to 1.95 µM in [9] and 2.85 µM in [10].
In the case of `COC(=O)CCC(NC(=S)N/N=C/c1ccco1)C(=O)OC` (stereo not given), the TGI in [1], in [2], in test [3], in [4], in test [5] and in [7] was > 100 µM in each case. In addition, the TGI in test [8], in test [9] and in [10] was > 100 µM each time.
For `CN1c2ccccc2N(C)C23N(C)c4ccccc4N(C)C12N(C)c1ccccc1N3C` (stereo not given), the TGI in [1], in [2], in test [4], in test [5], in test [6] and in [7] was > 100 µM throughout. For the same compound, the TGI in [8], in test [9] and in test [10] was > 100 µM each time.
